Reference: patent US20150073123A1, “SYNTHETIC PEPTIDES WITH A NON-NARCOTIC TYPE OF ANALGESIC EFFECT” (priority 2012, published 2015)
Where no end group is shown, it is not given here.

Key:
rats [1] = test: Rat formalin test, suboccipital injection of peptide 20 min before formalin; format: in vivo; settings: for Duration of the first peak of pain reaction / Time of pain reaction onset: Table 2, suboccipital injection
Protocol: Analgesic activity of newly synthesized peptides was examined in the “formalin test” which allows discovering non-narcotic type of anesthesia (Wheeler-Aceto H., Porrea F., A. Cowan. The rat paw formalin test: comparison of noxious agents. Pain, 40 (1990), 229-238).
(§1) Analgesic activity of newly synthesized peptides was examined as follows. Rats weighing 180-200 g were suboccipitally injected with the study peptide under ether anesthesia using a microdispenser in 10 μl of normal saline. Control animals were similarly injected with the equal amount of normal saline. After 20 minutes, 50 mcl of formalin solution at a dilution of 1:50 was injected into the dorsal surface of the right hind paw. The time of peptide injection and formalin dilution has been developed earlier. Each rat was used only once. The most clear behavioral indicators of pain reaction were expressed in paw tucking, licking, nibbling and jolting. Moreover, the first acute reaction to pain lasting for 6-7 min in control animals was followed by the dormant period: a rat lowered its paw, grooming behavior and nibbling was stopped. Then the reaction was repeated with expression not less than the previous one—it was the second phase of pain reaction.
(§2) The moment of paw tucking (beginning of the 1st phase of pain reaction), duration of this reaction, duration of dormancy and time of onset of the second phase of reaction—repeated paw tucking or its absence—were visually recorded in order to obtain quantitative data. Peptide was injected 20 min prior to formalin injection in case of suboccipital method of peptide injection and 30 min prior to formalin injection in case of intranasal method.

rats [2] = test: Rat formalin test, intranasal administration of peptide 30 min before formalin; format: in vivo; settings: Table 7; for Duration of the 1st peak of pain reaction: in s
Protocol: as §1
as §2, with “method. […]” for “method.”

rats [3] = settings: earlier work of Kotin, Vlasov et al. 1988; cited from earlier work
[4] = earlier work; cited from earlier work
[5] = intranasal in citrate phosphate buffer, 30 min prior to formalin 2%, dose 10 μg

Substance	Beginning of pain reaction (rats [2]; [5])	Beginning of pain reaction (rats [2]; intranasal, dose 0.1 μg)	Beginning of the 2nd peak (rats [2]; intranasal, dose 0.1 μg)	Duration of the 1st peak of pain reaction (rats [2]; intranasal, dose 0.1 μg)	Beginning of pain reaction (rats [2]; intranasal, dose 1 μg)	Beginning of the 2nd peak (rats [2]; intranasal, dose 1 μg)	Duration of the 1st peak of pain reaction (rats [2]; intranasal, dose 1 μg)	Beginning of the 2nd peak (rats [2]; intranasal, dose 10 μg)	Duration of the 1st peak of pain reaction (rats [2]; intranasal, dose 10 μg)	also measured
CGRP										Beginning of pain reaction (rats [1]; Table 4, dose 1 μg): 5 (2) sec; Beginning of the 2nd peak (rats [1]; Table 4, dose 1 μg): 17 (2) min; Duration of the 1st peak of pain reaction (rats [1]; Table 4, dose 1 μg): 402 (36); Analgesic activity in the formalin test (in words) (rats [1]; rats): does not have analgesic activity
D-Thr-D-Glu-D-Leu-D-15 Lys-L-His-D-Leu-NH2	8 ± 3 s	48 ± 18 s	21.0 ± 5.3 min	300 ± 10	10 ± 2 s	12.5 ± 1.6, the min	342 ± 26	15.0 ± 1.6 min	314 ± 32	Number of rats that do not have the 2nd peak (rats [2]; intranasal, dose 1 μg, remark in the 2nd peak column): first one has none
D-Thr-D-Glu-D-Leu-D-Lys-D-His-D-Leu-NH2 [Complete retro-inversion CT16-21]	20 ± 9 s	126 s	16.2 ± 2.6 min	249 ± 20	12 ± 6 s	17.4 ± 2.9 min	300 ± 46	14.4 ± 1.0 min	333 ± 9	
LHKLQT [CT16-21]										Analgesic activity in the rat formalin test (in words) (rats [3]): high analgesic activity; Impact on calcium metabolism [4]: does not have immunologic activity, impact on calcium metabolism; Duration of the first peak of pain reaction (rats [1]; rats, dose 0.001 μg/rat): 394 (34) sec; Time of pain reaction onset (rats [1]; rats, dose 0.001 μg/rat): 17 (6) sec; Duration of the first peak of pain reaction (rats [1]; rats, dose 0.01 μg/rat): 328 (21) sec; Time of pain reaction onset (rats [1]; rats, dose 0.01 μg/rat): 19 (8) sec; Duration of the first peak of pain reaction (rats [1]; rats, dose 0.1 μg/rat): 263 (20) a < 0.001 sec; Time of pain reaction onset (rats [1]; rats, dose 0.1 μg/rat): 39 (8) a < 0.001 sec; Beginning of the 2nd peak (rats [1]; Table 3, dose 1 μg per rat): 21 ± 2 min; Duration of the 1st peak (rats [1]; Table 3, dose 1 μg per rat): 284 ± 20 s; Number of animals which do not have the 2nd peak of reaction (rats [1]; Table 3, dose 1 μg per rat): 4; Beginning of pain reaction (rats [1]; Table 3, dose 1 μg per rat, in s): 30 ± 6
